# Tests used:
# [1] = biological target: T1, human recombinant HDAC1 (Homo sapiens, UniProt Q13547); assay: HDAC1 enzyme activity inhibition (HDAC Fluorimetric Drug Discovery Kit); format: biochemical; conditions: human recombinant HDAC1, Fluor de Lys substrate, 30° C. 60 minutes; read-out: HDAC1
# T1 construct: purchased Enzo Life Science, Inc. BML-SE456
# In short: (§1)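 Each isoform is run in the same format: compound dilutions (5-fold steps), 10 μM substrate, […] enzyme, one hour at 30° C, then 30 minutes with developer before fluorescence readout.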
# [2] = biological target: T2, human recombinant HDAC6 (Homo sapiens, UniProt Q9UBN7); assay: HDAC6 enzyme activity inhibition (HDAC Fluorimetric Drug Discovery Kit); format: biochemical; conditions: for HDAC6 selectivity (fold): HDAC6 over HDAC1; for IC50: human recombinant HDAC6, same protocol as HDAC1
# T2 construct: purchased Calbiochem Inc. 382180
# T2 sequence (Q9UBN7 1-1215): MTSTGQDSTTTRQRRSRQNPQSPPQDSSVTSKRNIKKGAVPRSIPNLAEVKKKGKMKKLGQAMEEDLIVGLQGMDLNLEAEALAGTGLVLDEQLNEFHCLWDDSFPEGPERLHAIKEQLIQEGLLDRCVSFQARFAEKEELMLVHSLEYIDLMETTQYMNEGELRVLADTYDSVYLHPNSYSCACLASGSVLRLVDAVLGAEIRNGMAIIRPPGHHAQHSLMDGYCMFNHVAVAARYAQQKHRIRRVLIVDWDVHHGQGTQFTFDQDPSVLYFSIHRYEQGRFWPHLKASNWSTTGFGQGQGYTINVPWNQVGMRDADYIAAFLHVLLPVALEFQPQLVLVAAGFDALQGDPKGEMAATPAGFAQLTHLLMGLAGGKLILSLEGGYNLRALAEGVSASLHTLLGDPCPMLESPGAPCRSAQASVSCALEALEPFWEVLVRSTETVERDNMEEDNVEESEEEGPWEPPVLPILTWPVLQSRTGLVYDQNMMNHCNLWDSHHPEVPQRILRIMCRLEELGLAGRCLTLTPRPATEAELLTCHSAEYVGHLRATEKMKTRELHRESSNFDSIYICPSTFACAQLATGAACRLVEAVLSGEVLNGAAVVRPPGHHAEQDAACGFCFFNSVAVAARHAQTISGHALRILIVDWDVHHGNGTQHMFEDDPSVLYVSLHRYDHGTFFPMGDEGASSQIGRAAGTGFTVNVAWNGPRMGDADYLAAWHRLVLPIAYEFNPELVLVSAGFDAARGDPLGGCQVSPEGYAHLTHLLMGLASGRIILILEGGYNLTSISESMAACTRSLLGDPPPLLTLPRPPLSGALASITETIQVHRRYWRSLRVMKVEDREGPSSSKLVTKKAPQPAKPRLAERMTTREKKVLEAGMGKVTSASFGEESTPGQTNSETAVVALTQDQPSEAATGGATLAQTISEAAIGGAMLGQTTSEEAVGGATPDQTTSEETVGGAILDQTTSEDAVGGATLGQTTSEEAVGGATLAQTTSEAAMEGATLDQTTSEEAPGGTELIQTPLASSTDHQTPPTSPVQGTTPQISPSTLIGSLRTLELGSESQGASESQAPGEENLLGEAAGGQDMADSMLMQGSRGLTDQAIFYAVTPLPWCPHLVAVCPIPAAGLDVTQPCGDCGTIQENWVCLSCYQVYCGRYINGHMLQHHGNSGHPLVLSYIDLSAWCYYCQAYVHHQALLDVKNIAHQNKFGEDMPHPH
# In short: as §1
# T1 sequence (Q13547 whole entry): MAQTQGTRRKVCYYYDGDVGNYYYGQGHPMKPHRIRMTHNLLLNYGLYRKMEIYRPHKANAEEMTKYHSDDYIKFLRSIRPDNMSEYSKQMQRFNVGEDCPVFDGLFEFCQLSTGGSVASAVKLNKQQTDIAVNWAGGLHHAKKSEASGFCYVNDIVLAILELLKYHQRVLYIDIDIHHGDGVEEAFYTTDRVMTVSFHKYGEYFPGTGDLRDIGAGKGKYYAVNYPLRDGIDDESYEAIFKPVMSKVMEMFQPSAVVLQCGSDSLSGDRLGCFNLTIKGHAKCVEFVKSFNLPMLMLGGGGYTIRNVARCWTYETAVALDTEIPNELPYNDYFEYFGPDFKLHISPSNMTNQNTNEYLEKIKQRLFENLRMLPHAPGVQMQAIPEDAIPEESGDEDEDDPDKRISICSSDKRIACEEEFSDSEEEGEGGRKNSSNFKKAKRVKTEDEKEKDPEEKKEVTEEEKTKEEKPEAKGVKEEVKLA
Structure (SMILES),IC50 [1] [nM],HDAC6 selectivity (fold) [2] [fold],IC50 [2] [nM]
"Fc1cc(-c2nnc(C(F)F)o2)ccc1Cn1cc(-c2ccc3c(c2)CN(CC2(F)CC2)C3)nn1 [Compound 17460, 2-(difluoromethyl)-5-(3-fluoro-4-((4-(2-((1-fluorocyclopropyl)methyl)isoindolin-5-yl)-1H-1,2,3-triazol-1-yl)methyl)phenyl)-1,3,4-oxadiazole]",> 50000,572,87.4
"OCc1ccc(-c2cn(Cc3ccc(-c4nnc(C(F)F)o4)cc3F)nn2)nc1 [Compound 17545, (6-(1-(4-(5-(difluoromethyl)-1,3,4-oxadiazol-2-yl)-2-fluorobenzyl)-1H-1,2,3-triazol-4-yl)pyridin-3-yl)methanol]",> 50000,880,56.8
"Fc1cc(-c2nnc(C(F)F)o2)ccc1Cn1cc(-c2ccc(C3CN(C4CCC4)C3)cc2)nn1 [Compound 17699, 2-(4-((4-(4-(1-cyclobutylazetidin-3-yl)phenyl)-1H-1,2,3-triazol-1-yl)methyl)-3-fluorophenyl)-5-(difluoromethyl)-1,3,4-oxadiazole]",> 50000,1043,47.9
"Fc1cc(-c2nnc(C(F)F)o2)ccc1Cn1cc(-c2ccc(C3CN(C4COC4)C3)cc2)nn1 [Compound 17700, 2-(difluoromethyl)-5-(3-fluoro-4-((4-(4-(1-(oxetan-3-yl)azetidin-3-yl)phenyl)-1H-1,2,3-triazol-1-yl)methyl)phenyl)-1,3,4-oxadiazole]",> 50000,626,79.8
"Fc1cc(-c2nnc(C(F)F)o2)ccc1Cn1cc(-c2ccc(CN3CC[C@H](F)C3)nc2)nn1 [Compound 17773, (S)-2-(difluoromethyl)-5-(3-fluoro-4-((4-(6-((3-fluoropyrrolidin-1-yl)methyl)pyridin-3-yl)-1H-1,2,3-triazol-1-yl)methyl)phenyl)-1,3,4-oxadiazole]",> 50000,769,65
"CC1(C)CCN(Cc2ccc(-c3cn(Cc4ccc(-c5nnc(C(F)F)o5)cc4F)nn3)cn2)CC1 [Compound 17777, 2-(difluoromethyl)-5-(4-((4-(6-((4,4-dimethylpiperidin-1-yl)methyl)pyridin-3-yl)-1H-1,2,3-triazol-1-yl)methyl)-3-fluorophenyl)-1,3,4-oxadiazole]",> 50000,952,52.5
"Fc1cc(-c2nnc(C(F)F)o2)ccc1Cn1cc(-c2ccc(CN3CCC(F)(F)CC3)nc2)nn1 [Compound 17778, 2-(difluoromethyl)-5-(4-((4-(6-((4,4-difluoropiperidin-1-yl)methyl)pyridin-3-yl)-1H-1,2,3-triazol-1-yl)methyl)-3-fluorophenyl)-1,3,4-oxadiazole]",> 50000,603,82.9
"Fc1cc(-c2nnc(C(F)F)o2)ccc1Cn1cc(-c2nccs2)nn1 [Compound 17848, 2-(difluoromethyl)-5-(3-fluoro-4-((4-(thiazol-2-yl)-1H-1,2,3-triazol-1-yl)methyl)phenyl)-1,3,4-oxadiazole]",> 50000,646,77.3
"Cc1csc(-c2cn(Cc3ccc(-c4nnc(C(F)F)o4)cc3F)nn2)n1 [Compound 17854, 2-(difluoromethyl)-5-(3-fluoro-4-((4-(4-methylthiazol-2-yl)-1H-1,2,3-triazol-1-yl)methyl)phenyl)-1,3,4-oxadiazole]",> 50000,599,83.4
OCc1ccc(-c2cn(Cc3ccc(-c4nnc(C(F)F)o4)cc3F)nn2)s1 [Compound 17922],> 50000,512,97.6

# Next, values leading:
IC50 [1] [nM],HDAC6 selectivity (fold) [2] [fold],IC50 [2] [nM],Structure (SMILES)
> 50000,976,51.2,"Fc1cc(-c2nnc(C(F)F)o2)ccc1Cn1cc(-c2cccc(N3CCN(C4CCC4)CC3)n2)nn1 [Compound 17364, 2-(4-((4-(6-(4-cyclobutylpiperazin-1-yl)pyridin-2-yl)-1H-1,2,3-triazol-1-yl)methyl)-3-fluorophenyl)-5-(difluoromethyl)-1,3,4-oxadiazole]"
> 50000,1377,36.3,"Fc1cc(-c2nnc(C(F)F)o2)ccc1Cn1cc(-c2cccc(N3CCN(C4COC4)CC3)n2)nn1 [Compound 17365, 2-(difluoromethyl)-5-(3-fluoro-4-((4-(6-(4-(oxetan-3-yl)piperazin-1-yl)pyridin-2-yl)-1H-1,2,3-triazol-1-yl)methyl)phenyl)-1,3,4-oxadiazole]"
> 50000,619,80.7,"Fc1cc(-c2nnc(C(F)F)o2)ccc1Cn1cc(-c2ccc3c(c2)CN(C2CCOCC2)C3)nn1 [Compound 17458, 2-(difluoromethyl)-5-(3-fluoro-4-((4-(2-(tetrahydro-2H-pyran-4-yl)isoindolin-5-yl)-1H-1,2,3-triazol-1-yl)methyl)phenyl)-1,3,4-oxadiazole]"
> 50000,897,55.7,"Fc1cc(-c2nnc(C(F)F)o2)ccc1Cn1cc(-c2ccc(CN3CC[C@@H](F)C3)nc2)nn1 [Compound 17774, (R)-2-(difluoromethyl)-5-(3-fluoro-4-((4-(6-((3-fluoropyrrolidin-1-yl)methyl)pyridin-3-yl)-1H-1,2,3-triazol-1-yl)methyl)phenyl)-1,3,4-oxadiazole]"
> 50000,531,94.1,"Fc1cc(-c2nnc(C(F)F)o2)ccc1Cn1cc(-c2ccc(CN3CCC(F)(F)C3)nc2)nn1 [Compound 17775, 2-(difluoromethyl)-5-(4-((4-(6-((3,3-difluoropyrrolidin-1-yl)methyl)pyridin-3-yl)-1H-1,2,3-triazol-1-yl)methyl)-3-fluorophenyl)-1,3,4-oxadiazole]"
> 50000,588,84.9,"Fc1cc(-c2nnc(C(F)F)o2)ccc1Cn1cc(-c2cncs2)nn1 [Compound 17851, 2-(difluoromethyl)-5-(3-fluoro-4-((4-(thiazol-5-yl)-1H-1,2,3-triazol-1-yl)methyl)phenyl)-1,3,4-oxadiazole]"
> 50000,809,61.8,"Cc1cnc(-c2cn(Cc3ccc(-c4nnc(C(F)F)o4)cc3F)nn2)s1 [Compound 17857, 2-(difluoromethyl)-5-(3-fluoro-4-((4-(5-methylthiazol-2-yl)-1H-1,2,3-triazol-1-yl)methyl)phenyl)-1,3,4-oxadiazole]"
> 50000,1237,40.4,"Fc1cc(-c2nnc(C(F)F)o2)ccc1Cn1cc(-c2ccc(CN3CCC3)s2)nn1 [Compound 17912, 2-(4-((4-(5-(azetidin-1-ylmethyl)thiophen-2-yl)-1H-1,2,3-triazol-1-yl)methyl)-3-fluorophenyl)-5-(difluoromethyl)-1,3,4-oxadiazole]"
> 50000,1547,32.3,"Fc1cc(-c2nnc(C(F)F)o2)ccc1Cn1cc(-c2ccc(CN3CCCC3)s2)nn1 [Compound 17913, 2-(difluoromethyl)-5-(3-fluoro-4-((4-(5-(pyrrolidin-1-ylmethyl)thiophen-2-yl)-1H-1,2,3-triazol-1-yl)methyl)phenyl)-1,3,4-oxadiazole]"
> 50000,568,87.9,CC1CCN(Cc2ccc(-c3cn(Cc4ccc(-c5nnc(C(F)F)o5)cc4F)nn3)s2)CC1 [Compound 17915]
> 50000,556,89.8,Fc1cc(-c2nnc(C(F)F)o2)ccc1Cn1cc(-c2ccc(CN3CC[C@H](F)C3)s2)nn1 [Compound 17916]
> 50000,881,56.7,Fc1cc(-c2nnc(C(F)F)o2)ccc1Cn1cc(-c2ccc(CN3CC[C@@H](F)C3)s2)nn1 [Compound 17917]

# From patent US20230257372A1 (CHONG KUN DANG PHARMACEUTICAL CORP., priority 2020, published 2023)
